In ChEMBL document CHEMBL4219183, “Novel purine benzimidazoles as antimicrobial agents by regulating ROS generation and targeting clinically resistant Staphylococcus aureus DNA groove” (Bioorg Med Chem Lett, 2018):
≈ marks a conversion by molar mass, not a printed value.

Key:
Format in all cases: functional
Candida albicans [1] = assay: Antifungal activity against Candida albicans after 24 hrs by two fold serial dilution method
Candida parapsilosis = assay: Antifungal activity against Candida parapsilosis ATCC 22019 after 24 hrs by two fold serial dilution method; conditions: ATCC 22019, 24 h
Staphylococcus aureus [2] = assay: Antibacterial activity against Staphylococcus aureus ATCC 29213 after 24 hrs by two fold serial dilution method; conditions: ATCC 29213, 24 h
Candida tropicalis = assay: Antifungal activity against Candida tropicalis after 24 hrs by two fold serial dilution method
Acinetobacter baumannii = assay: Antibacterial activity against Acinetobacter baumannii after 24 hrs by two fold serial dilution method
Staphylococcus aureus [3] = assay: Antibacterial activity against methicillin-resistant Staphylococcus aureus N315 after 24 hrs by two fold serial dilution method; conditions: N315, 24 h
Aspergillus fumigatus = assay: Antifungal activity against Aspergillus fumigatus after 24 hrs by two fold serial dilution method
Escherichia coli [4] = assay: Antibacterial activity against Escherichia coli ATCC 25922 after 24 hrs by two fold serial dilution method; conditions: ATCC 25922, 24 h
Enterococcus faecalis = assay: Antibacterial activity against Enterococcus faecalis after 24 hrs by two fold serial dilution method
Escherichia coli [5] = assay: Antibacterial activity against Escherichia coli after 24 hrs by two fold serial dilution method
Klebsiella pneumoniae = assay: Antibacterial activity against Klebsiella pneumoniae after 24 hrs by two fold serial dilution method
Staphylococcus aureus [6] = assay: Antibacterial activity against Staphylococcus aureus after 24 hrs by two fold serial dilution method
Staphylococcus aureus [7] = assay: Antibacterial activity against Staphylococcus aureus ATCC 25923 after 24 hrs by two fold serial dilution method; conditions: ATCC 25923, 24 h
Pseudomonas aeruginosa [8] = assay: Antibacterial activity against Pseudomonas aeruginosa after 24 hrs by two fold serial dilution method
Pseudomonas aeruginosa [9] = assay: Antibacterial activity against Pseudomonas aeruginosa ATCC 27853 after 24 hrs by two fold serial dilution method; conditions: ATCC 27853, 24 h
Candida albicans [10] = assay: Antifungal activity against Candida albicans ATCC 90023 after 24 hrs by two fold serial dilution method; conditions: ATCC 90023, 24 h

Structure (SMILES) | MIC80 (Candida albicans [1]) [µg/mL] | MIC80 (Candida parapsilosis) [µg/mL] | MIC (Staphylococcus aureus [2]) [µg/mL] | MIC80 (Candida tropicalis) [µg/mL] | MIC (Acinetobacter baumannii) [µg/mL] | MIC (Staphylococcus aureus [3]) [µg/mL] | MIC80 (Aspergillus fumigatus) [µg/mL] | MIC (Escherichia coli [4]) [µg/mL] | MIC (Enterococcus faecalis) [µg/mL] | MIC (Escherichia coli [5]) [µg/mL] | MIC (Klebsiella pneumoniae) [µg/mL] | MIC (Staphylococcus aureus [6]) [µg/mL] | MIC (Staphylococcus aureus [7]) [µg/mL] | MIC (Pseudomonas aeruginosa [8]) [µg/mL] | MIC (Pseudomonas aeruginosa [9]) [µg/mL] | MIC80 (Candida albicans [10]) [µg/mL]
Cc1nc2cc([N+](=O)[O-])ccc2n1CCn1cnc2c(N3CCOCC3)ncnc21 | 512 (≈ 1250 µM) | 256 (≈ 627 µM) | 64 (≈ 157 µM) | 64 (≈ 157 µM) | 32 (≈ 78.4 µM) | 256 (≈ 627 µM) | 128 (≈ 313 µM) | 16 (≈ 39.2 µM) | 128 (≈ 313 µM) | 128 (≈ 313 µM) | 128 (≈ 313 µM) | 16 (≈ 39.2 µM) | 128 (≈ 313 µM) | 64 (≈ 157 µM) | 64 (≈ 157 µM) | 256 (≈ 627 µM)
Clc1ccccc1Cn1c(Cn2cnc3c(N4CCOCC4)ncnc32)nc2ccccc21 | 256 (≈ 557 µM) | 256 (≈ 557 µM) | 32 (≈ 69.6 µM) | 256 (≈ 557 µM) | 256 (≈ 557 µM) | 512 (≈ 1110 µM) | 256 (≈ 557 µM) | 256 (≈ 557 µM) | 256 (≈ 557 µM) | 128 (≈ 278 µM) | 64 (≈ 139 µM) | 256 (≈ 557 µM) | 256 (≈ 557 µM) | 128 (≈ 278 µM) | 64 (≈ 139 µM) | 256 (≈ 557 µM)
CC(=O)c1nc2ccccc2n1CCn1cnc2c(N3CCOCC3)ncnc21 | 256 (≈ 654 µM) | 512 (≈ 1310 µM) | 128 (≈ 327 µM) | 256 (≈ 654 µM) | 64 (≈ 164 µM) | 256 (≈ 654 µM) | 128 (≈ 327 µM) | 128 (≈ 327 µM) | 64 (≈ 164 µM) | 128 (≈ 327 µM) | 32 (≈ 81.8 µM) | 32 (≈ 81.8 µM) | 64 (≈ 164 µM) | 8 (≈ 20.4 µM) | 32 (≈ 81.8 µM) | 128 (≈ 327 µM)
c1ccc2c(c1)ncn2CCn1cnc2c(N3CCOCC3)ncnc21 | 256 (≈ 733 µM) | 128 (≈ 366 µM) | 256 (≈ 733 µM) | 256 (≈ 733 µM) | 256 (≈ 733 µM) | 256 (≈ 733 µM) | 256 (≈ 733 µM) | 128 (≈ 366 µM) | 128 (≈ 366 µM) | 256 (≈ 733 µM) | 256 (≈ 733 µM) | 256 (≈ 733 µM) | 256 (≈ 733 µM) | 128 (≈ 366 µM) | 256 (≈ 733 µM) | 128 (≈ 366 µM)
CCCCCCCCCCCCCCCCn1c(Cn2cnc3c(N4CCOCC4)ncnc32)nc2ccccc21 | 128 (≈ 229 µM) | 128 (≈ 229 µM) | 256 (≈ 457 µM) | 128 (≈ 229 µM) | 256 (≈ 457 µM) | 512 (≈ 915 µM) | 256 (≈ 457 µM) | 256 (≈ 457 µM) | 32 (≈ 57.2 µM) | 512 (≈ 915 µM) | 128 (≈ 229 µM) | 64 (≈ 114 µM) | 256 (≈ 457 µM) | 512 (≈ 915 µM) | 256 (≈ 457 µM) | 512 (≈ 915 µM)
CCCCn1c(Cn2cnc3c(N4CCOCC4)ncnc32)nc2ccccc21 | 256 (≈ 654 µM) | 256 (≈ 654 µM) | 128 (≈ 327 µM) | 128 (≈ 327 µM) | 256 (≈ 654 µM) | 512 (≈ 1310 µM) | 256 (≈ 654 µM) | 128 (≈ 327 µM) | 256 (≈ 654 µM) | 64 (≈ 163 µM) | 256 (≈ 654 µM) | 256 (≈ 654 µM) | 256 (≈ 654 µM) | 256 (≈ 654 µM) | 128 (≈ 327 µM) | 128 (≈ 327 µM)
C#CCn1c(Cn2cnc3c(N4CCOCC4)ncnc32)nc2ccccc21 | 256 (≈ 686 µM) | 256 (≈ 686 µM) | 256 (≈ 686 µM) | 128 (≈ 343 µM) | 256 (≈ 686 µM) | 512 (≈ 1370 µM) | 512 (≈ 1370 µM) | 512 (≈ 1370 µM) | 256 (≈ 686 µM) | 128 (≈ 343 µM) | 128 (≈ 343 µM) | 128 (≈ 343 µM) | 128 (≈ 343 µM) | 256 (≈ 686 µM) | 128 (≈ 343 µM) | 256 (≈ 686 µM)
Fc1cccc(Cn2c(Cn3cnc4c(N5CCOCC5)ncnc43)nc3ccccc32)c1 | 256 (≈ 577 µM) | 128 (≈ 289 µM) | 64 (≈ 144 µM) | 128 (≈ 289 µM) | 256 (≈ 577 µM) | 512 (≈ 1150 µM) | 256 (≈ 577 µM) | 256 (≈ 577 µM) | 128 (≈ 289 µM) | 256 (≈ 577 µM) | 16 (≈ 36.1 µM) | 256 (≈ 577 µM) | 32 (≈ 72.2 µM) | 256 (≈ 577 µM) | 128 (≈ 289 µM) | 32 (≈ 72.2 µM)
Fc1ccccc1Cn1c(Cn2cnc3c(N4CCOCC4)ncnc32)nc2ccccc21 | 256 (≈ 577 µM) | 512 (≈ 1150 µM) | 16 (≈ 36.1 µM) | 256 (≈ 577 µM) | 128 (≈ 289 µM) | 256 (≈ 577 µM) | 64 (≈ 144 µM) | 256 (≈ 577 µM) | 64 (≈ 144 µM) | 64 (≈ 144 µM) | 64 (≈ 144 µM) | 256 (≈ 577 µM) | 128 (≈ 289 µM) | 32 (≈ 72.2 µM) | 32 (≈ 72.2 µM) | 64 (≈ 144 µM)
Clc1cccc(Cn2c(Cn3cnc4c(N5CCOCC5)ncnc43)nc3ccccc32)c1 | 512 (≈ 1110 µM) | 512 (≈ 1110 µM) | 128 (≈ 278 µM) | 128 (≈ 278 µM) | 256 (≈ 557 µM) | 512 (≈ 1110 µM) | 256 (≈ 557 µM) | 256 (≈ 557 µM) | 128 (≈ 278 µM) | 256 (≈ 557 µM) | 128 (≈ 278 µM) | 256 (≈ 557 µM) | 128 (≈ 278 µM) | 512 (≈ 1110 µM) | 256 (≈ 557 µM) | 128 (≈ 278 µM)
CCCCCCCCCCCCn1c(Cn2cnc3c(N4CCOCC4)ncnc32)nc2ccccc21 | 256 (≈ 508 µM) | 256 (≈ 508 µM) | 512 (≈ 1020 µM) | 64 (≈ 127 µM) | 512 (≈ 1020 µM) | 512 (≈ 1020 µM) | 256 (≈ 508 µM) | 256 (≈ 508 µM) | 128 (≈ 254 µM) | 32 (≈ 63.5 µM) | 256 (≈ 508 µM) | 16 (≈ 31.8 µM) | 512 (≈ 1020 µM) | 128 (≈ 254 µM) | 128 (≈ 254 µM) | 64 (≈ 127 µM)
